According to PubChem BioAssay AID1259407 (Chemical Carcinogenesis Research Information System (CCRIS), 2018):
Activity calls are given as the source filed them. How the calls were made is not given here.

System: CCRIS mutagenicity, Ames/micronucleus/aberration tests
Assay: CCRIS mutagenicity studies
Settings: Test System: AMES SALMONELLA TYPHIMURIUM

Measured: mutagenic call

CC(C)(OOC(C)(C)c1ccccc1)c1ccccc1
inactive: Strain/Indicator: TA97, Metabolic Activation: HAMSTER, LIVER, S-9, AROCLOR 1254 (10 OR 30%), Method: PREINCUBATION inactive; negative | Strain/Indicator: TA97, Metabolic Activation: NONE, Method: PREINCUBATION inactive; negative | Strain/Indicator: TA97, Metabolic Activation: RAT, LIVER, S-9, AROCLOR 1254 (10 OR 30%), Method: PREINCUBATION inactive; negative | Strain/Indicator: TA97A, Metabolic Activation: MOUSE LIVER S-9, AROCLOR 1254, Method: PREINCUBATION inactive; negative | Strain/Indicator: TA97A, Metabolic Activation: NONE, Method: PREINCUBATION inactive; negative | Strain/Indicator: TA97A, Metabolic Activation: RAT LIVER S-9, AROCLOR 1254, Method: PREINCUBATION inactive; negative | Strain/Indicator: TA98, Metabolic Activation: HAMSTER, LIVER, S-9, AROCLOR 1254 (10 OR 30%), Method: PREINCUBATION inactive; negative | Strain/Indicator: TA98, Metabolic Activation: NONE, Method: FLUCTUATION (MICROTITER) inactive; negative | Strain/Indicator: TA98, Metabolic Activation: NONE, Method: PREINCUBATION inactive; negative | Strain/Indicator: TA98, Metabolic Activation: RAT LIVER S-9, AROCLOR 1254, Method: FLUCTUATION (MICROTITER) inactive; negative | Strain/Indicator: TA98, Metabolic Activation: RAT, LIVER, S-9, AROCLOR 1254 (10 OR 30%), Method: PREINCUBATION inactive; negative | Strain/Indicator: TA100, Metabolic Activation: HAMSTER, LIVER, S-9, AROCLOR 1254 (10 OR 30%), Method: PREINCUBATION inactive; negative | Strain/Indicator: TA100, Metabolic Activation: MOUSE LIVER S-9, AROCLOR 1254, Method: PREINCUBATION inactive; negative | Strain/Indicator: TA100, Metabolic Activation: NONE, Method: PREINCUBATION inactive; negative | Strain/Indicator: TA100, Metabolic Activation: RAT LIVER S-9, AROCLOR 1254, Method: PREINCUBATION inactive; negative | Strain/Indicator: TA100, Metabolic Activation: RAT, LIVER, S-9, AROCLOR 1254 (10 OR 30%), Method: PREINCUBATION inactive; negative | Strain/Indicator: TA102, Metabolic Activation: NONE, Method: PREINCUBATION inactive; negative | Strain/Indicator: TA102, Metabolic Activation: RAT LIVER S-9, AROCLOR 1254, Method: PREINCUBATION inactive; negative | Strain/Indicator: TA104, Metabolic Activation: MOUSE LIVER S-9, AROCLOR 1254, Method: PREINCUBATION inactive; negative | Strain/Indicator: TA104, Metabolic Activation: NONE, Method: PREINCUBATION inactive; negative | Strain/Indicator: TA104, Metabolic Activation: RAT LIVER S-9, AROCLOR 1254, Method: PREINCUBATION inactive; negative | Strain/Indicator: TA1535, Metabolic Activation: HAMSTER, LIVER, S-9, AROCLOR 1254 (10 OR 30%), Method: PREINCUBATION inactive; negative | Strain/Indicator: TA1535, Metabolic Activation: NONE, Method: PREINCUBATION inactive; negative | Strain/Indicator: TA1535, Metabolic Activation: RAT, LIVER, S-9, AROCLOR 1254 (10 OR 30%), Method: PREINCUBATION inactive; negative | Strain/Indicator: TA1537, Metabolic Activation: NONE, Method: FLUCTUATION (MICROTITER) inactive; negative | Strain/Indicator: TA1537, Metabolic Activation: RAT LIVER S-9, AROCLOR 1254, Method: FLUCTUATION (MICROTITER) inactive; negative | Strain/Indicator: TA7001, Metabolic Activation: NONE, Method: FLUCTUATION (MICROTITER) inactive; negative | Strain/Indicator: TA7001, Metabolic Activation: RAT LIVER S-9, AROCLOR 1254, Method: FLUCTUATION (MICROTITER) inactive; negative | Strain/Indicator: TA7002, Metabolic Activation: NONE, Method: FLUCTUATION (MICROTITER) inactive; negative | Strain/Indicator: TA7002, Metabolic Activation: RAT LIVER S-9, AROCLOR 1254, Method: FLUCTUATION (MICROTITER) inactive; negative | Strain/Indicator: TA7003, Metabolic Activation: NONE, Method: FLUCTUATION (MICROTITER) inactive; negative | Strain/Indicator: TA7003, Metabolic Activation: RAT LIVER S-9, AROCLOR 1254, Method: FLUCTUATION (MICROTITER) inactive; negative | Strain/Indicator: TA7004, Metabolic Activation: NONE, Method: FLUCTUATION (MICROTITER) inactive; negative | Strain/Indicator: TA7004, Metabolic Activation: RAT LIVER S-9, AROCLOR 1254, Method: FLUCTUATION (MICROTITER) inactive; negative | Strain/Indicator: TA7005, Metabolic Activation: NONE, Method: FLUCTUATION (MICROTITER) inactive; negative | Strain/Indicator: TA7005, Metabolic Activation: RAT LIVER S-9, AROCLOR 1254, Method: FLUCTUATION (MICROTITER) inactive; negative | Strain/Indicator: TA7006, Metabolic Activation: NONE, Method: FLUCTUATION (MICROTITER) inactive; negative | Strain/Indicator: TA7006, Metabolic Activation: RAT LIVER S-9, AROCLOR 1254, Method: FLUCTUATION (MICROTITER) inactive; negative

COc1cc(O)cc2c1cc([N+](=O)[O-])c1c(C(=O)O)cc3c(c12)OCO3
inactive: Strain/Indicator: TM677/8-AZAGUANINE, Metabolic Activation: NONE, Method: SUSPENSION/PLATE inactive; negative
